# Experimental data taken from patent publication US9586928B2 (The Scripps Research Institute, priority 2011, dated 2017).
# How the values were obtained:
# RORγ = molecular target: T1, RORγ (Homo sapiens, UniProt P51449); assay: Gal4-RORγ LBD / UAS luciferase cotransfection assay; format: cell-based; details: 10 μM
# T1 construct: expressed in transfected cells; host or cells: HEK293T
# T1 sequence (P51449 269-508 limits assumed): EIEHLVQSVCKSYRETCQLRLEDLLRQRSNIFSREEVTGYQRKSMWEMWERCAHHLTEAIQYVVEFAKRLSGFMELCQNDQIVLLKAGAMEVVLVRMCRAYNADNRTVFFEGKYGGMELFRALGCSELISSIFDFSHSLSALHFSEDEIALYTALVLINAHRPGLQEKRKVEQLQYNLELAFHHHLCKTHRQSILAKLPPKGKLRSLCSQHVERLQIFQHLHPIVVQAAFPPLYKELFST
# VP16 = assay: Gal4 DBD-VP16 / UAS luciferase control assay; format: cell-based; details: 10 μM
# RORα = molecular target: T2, RORα (Homo sapiens, UniProt P35398); assay: Gal4-RORα LBD / UAS luciferase cotransfection assay; format: cell-based; details: 10 μM
# T2 construct: expressed in transfected cells; host or cells: HEK293T
# T2 sequence (P35398 272-510 limits assumed): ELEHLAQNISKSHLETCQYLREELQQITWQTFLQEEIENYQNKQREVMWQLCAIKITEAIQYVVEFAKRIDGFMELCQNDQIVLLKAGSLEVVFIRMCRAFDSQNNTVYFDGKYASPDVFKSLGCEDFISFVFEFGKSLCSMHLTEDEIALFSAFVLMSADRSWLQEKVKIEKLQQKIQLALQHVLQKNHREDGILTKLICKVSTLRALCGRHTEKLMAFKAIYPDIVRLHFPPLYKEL
# LXR = molecular target: T3, LXR (Homo sapiens, UniProt Q13133); assay: Gal4-LXRα / UAS luciferase cotransfection assay; format: cell-based; details: 10 μM
# T3 sequence (Q13133 209-447 limits assumed): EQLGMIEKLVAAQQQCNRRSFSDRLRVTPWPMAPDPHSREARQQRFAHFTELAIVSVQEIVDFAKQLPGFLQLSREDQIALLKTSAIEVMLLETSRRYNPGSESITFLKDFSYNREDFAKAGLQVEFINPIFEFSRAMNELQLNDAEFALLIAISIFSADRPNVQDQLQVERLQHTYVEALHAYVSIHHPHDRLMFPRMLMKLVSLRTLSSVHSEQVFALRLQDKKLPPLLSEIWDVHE
# GST-RORγ = molecular target: T4, GST-RORγ (Homo sapiens, UniProt P51449); assay: RORγ scintillation proximity (SPA) radioligand binding assay, displacement of [3H]-T0901317; details: 1 μM compound (Table 2D); read-out: RORγ SPA % bound = % radiolabel bound
# T4 construct: 1 μg of GST-RORγ-LBD, 5 nM of [3H]T1317 as radioligand
# T4 sequence (P51449 269-508 limits assumed): T1 sequence (P51449 269-508 limits assumed)
remaining activity at 1 µM (GST-RORγ),SMILES,"RORγ repression, fold change over DMSO (RORγ)","VP16 repression, fold change over DMSO (VP16)","RORα repression, fold change over DMSO (RORα)","LXR activation, fold change over DMSO (LXR)"
10%,"CCCCC(=O)N1CCN(Cc2ccc(-c3ccc(C(O)(C(F)(F)F)C(F)(F)F)cc3)cc2)CC1 [Example 158, 1-(4-((4′-(1,1,1,3,3,3-hexafluoro-2-hydroxypropan-2-yl)-[1,1′-biphenyl]-4-yl)methyl)piperazin-1-yl)pentan-1-one]",–,–,–,–
77%,"OC(c1ccc(-c2ccc(CN3CCN(Cc4ccncc4)CC3)cc2C(F)(F)F)cc1)(C(F)(F)F)C(F)(F)F [Example 160, 1,1,1,33,33-hexafluoro-2-(4′-((4-(pyridin-4-ylmethyl)piperazin-1-yl)methyl)-2′-(trifluoromethyl)-[1,1′-biphenyl]-4-yl)propan-2-ol]",–,–,–,–
95%,"N#Cc1cc(-c2ccc(C(O)(C(F)(F)F)C(F)(F)F)cc2)ccc1CN1CCN(Cc2ccncc2)CC1 [Example 161, 4′-(1,1,1,3,3,3-hexafluoro-2-hydroxypropan-2-yl)-4-((4-(pyridin-4-ylmethyl)piperazin-1-yl)methyl)-[1,1′-biphenyl]-3-carbonitrile]",–,–,–,–
10%,"OC(c1ccc(-c2cccc(CC3CCCN(Cc4ccncc4)C3)c2)cc1)(C(F)(F)F)C(F)(F)F (stereo not shown) [Example 163, 1,1,1,3,3,3-hexafluoro-2-(3′-((1-(pyridin-4-ylmethyl)piperidin-3-yl)methyl)-[1,1′-biphenyl]-4-yl)propan-2-ol]",–,–,–,–
10%,"OC(c1ccc(-c2ccc(CC3CCN(Cc4ccncc4)CC3)cc2)cc1)(C(F)(F)F)C(F)(F)F [Example 164, 1,1,1,3,3,3-hexafluoro-2-(4′-((1-(pyridin-4-ylmethyl)piperidin-4-yl)methyl)-[1,1′-biphenyl]-4-yl)propan-2-ol]",–,–,–,–

# Continued, compound first:
SMILES,remaining activity at 1 µM (GST-RORγ),"RORγ repression, fold change over DMSO (RORγ)","VP16 repression, fold change over DMSO (VP16)","RORα repression, fold change over DMSO (RORα)","LXR activation, fold change over DMSO (LXR)"
"OCCN1CCN(Cc2ccc(-c3ccc(C(O)(C(F)(F)F)C(F)(F)F)cc3)cc2)CC1 [Compound 2, 1,1,1,3,3,3-Hexafluoro-2-(4′-((4-(2-hydroxyethyl)piperazin-1-yl)methyl)-[1,1′-biphenyl]-4-yl)propan-2-ol]",–,0.9 fold change over DMSO,0.9 fold change over DMSO,1.3 fold change over DMSO,1.1 fold change over DMSO
"OC(c1ccc(-c2ccc(CN3CCN(CCc4ccccc4)CC3)cc2)cc1)(C(F)(F)F)C(F)(F)F [Compound 11, 1,1,1,3,3,3-Hexafluoro-2-(4′-((4-phenethylpiperazin-1-yl)methyl)-[1,1′-biphenyl]-4-yl)propan-2-ol]",–,0.5 fold change over DMSO,0.35 fold change over DMSO,0.5 fold change over DMSO,1 fold change over DMSO
"OC(c1ccc(-c2ccc(CN3CCN(c4ccccc4)CC3)cc2)cc1)(C(F)(F)F)C(F)(F)F [Compound 14, 1,1,1,3,3,3-Hexafluoro-2-(4′-((4-phenylpiperazin-1-yl)methyl)-[1,1′-biphenyl]-4-yl)propan-2-ol]",–,0.05 fold change over DMSO,0.4 fold change over DMSO,0.4 fold change over DMSO,5 fold change over DMSO
"O=C(Cc1c[nH]cn1)N1CCN(Cc2ccc(-c3ccc(C(O)(C(F)(F)F)C(F)(F)F)cc3)cc2)CC1 [Example 159, 1-(4-((4′-(1,1,1,3,3,3-hexafluoro-2-hydroxypropan-2-yl)-[1,1′-biphenyl]-4-yl)methyl)piperazin-1-yl)-2-(1H-imidazol-4-yl)ethanone]",80%,–,–,–,–
"OC(c1ccc(-c2ccc3c(c2)CCN3C2CCN(Cc3ccncc3)CC2)cc1)(C(F)(F)F)C(F)(F)F [Example 162, 1,1,1,3,3,3-hexafluoro-2-(4-(1-(1-(pyridin-4-ylmethyl)piperidin-4-yl)indolin-5-yl)phenyl)propan-2-ol]",15%,–,–,–,–
